Test [1] addresses T1, human Melanin concentrating hormone receptor 1 (hMCHr1) (Homo sapiens, UniProt Q99705).
T1 construct: purchased Euroscreen; host or cells: CHO-K1 cells (recombinant expression; membranes)
Nature of the test: MCHr1 receptor radioligand binding (125I-MCH, membranes from CHO-K1 cells). The conditions noted are these: 125I-MCH displacement, CHO-K1 membranes expressing hMCHr1, 30° C. 60 minutes; read-out: IC50 in human MCHr binding assay. On the procedure:
Assays were performed in a 96-well plate format in a final reaction volume of 200 μl per well. […] Filters were washed with assay buffer.
Non-specific binding was subtracted from all values determined. […] Binding of compounds at various concentrations was plotted according to the equation

A further test deals with hERG (Homo sapiens, UniProt Q12809). Nature of the test: hERG activity (planar-array-based voltage clamp, modified Kiss et al. method). It counts as cell-based. As to the method: hERG testing was performed using a modified version of the method described by Kiss L, Bennett P B, Uebele V N, Koblan K S, Kane S A, Neagle B, Schroeder K. “High throughput ion-channel pharmacology: planar-array-based voltage clamp.” Assay Drug Dev Technol. 1, 127-35. (2003).
For orientation: hERG is a cardiac potassium channel; its block is linked to QT prolongation.

Sequence of hERG (Q12809 whole entry): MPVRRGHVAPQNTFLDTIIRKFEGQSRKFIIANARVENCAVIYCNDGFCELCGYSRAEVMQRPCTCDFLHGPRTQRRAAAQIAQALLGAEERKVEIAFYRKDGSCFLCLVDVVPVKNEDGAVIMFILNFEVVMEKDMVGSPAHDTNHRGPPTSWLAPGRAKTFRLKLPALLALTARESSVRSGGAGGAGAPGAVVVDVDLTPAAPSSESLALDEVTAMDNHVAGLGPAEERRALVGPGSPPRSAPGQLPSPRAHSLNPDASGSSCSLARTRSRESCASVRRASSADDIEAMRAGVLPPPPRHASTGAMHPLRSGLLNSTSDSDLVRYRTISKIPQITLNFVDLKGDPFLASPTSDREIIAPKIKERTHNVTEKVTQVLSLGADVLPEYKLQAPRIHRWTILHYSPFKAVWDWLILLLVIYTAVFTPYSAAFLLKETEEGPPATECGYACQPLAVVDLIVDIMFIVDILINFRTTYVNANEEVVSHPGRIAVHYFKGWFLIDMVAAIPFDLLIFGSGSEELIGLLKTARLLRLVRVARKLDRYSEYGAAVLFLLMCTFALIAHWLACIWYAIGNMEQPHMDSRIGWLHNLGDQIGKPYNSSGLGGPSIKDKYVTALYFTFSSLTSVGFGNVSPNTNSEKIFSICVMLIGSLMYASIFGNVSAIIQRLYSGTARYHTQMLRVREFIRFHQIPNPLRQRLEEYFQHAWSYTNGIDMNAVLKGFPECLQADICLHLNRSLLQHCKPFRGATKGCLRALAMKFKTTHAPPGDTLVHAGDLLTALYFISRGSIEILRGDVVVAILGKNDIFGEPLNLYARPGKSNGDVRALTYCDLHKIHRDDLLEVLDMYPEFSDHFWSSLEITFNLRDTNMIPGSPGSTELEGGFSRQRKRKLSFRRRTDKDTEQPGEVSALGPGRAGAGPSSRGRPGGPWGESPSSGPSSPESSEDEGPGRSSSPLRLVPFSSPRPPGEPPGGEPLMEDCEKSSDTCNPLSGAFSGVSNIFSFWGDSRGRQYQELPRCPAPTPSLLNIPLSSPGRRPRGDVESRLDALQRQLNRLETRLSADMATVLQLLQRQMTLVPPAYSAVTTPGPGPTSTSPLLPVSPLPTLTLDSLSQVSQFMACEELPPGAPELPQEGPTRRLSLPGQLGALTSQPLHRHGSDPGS
T1 sequence (Q99705 whole entry): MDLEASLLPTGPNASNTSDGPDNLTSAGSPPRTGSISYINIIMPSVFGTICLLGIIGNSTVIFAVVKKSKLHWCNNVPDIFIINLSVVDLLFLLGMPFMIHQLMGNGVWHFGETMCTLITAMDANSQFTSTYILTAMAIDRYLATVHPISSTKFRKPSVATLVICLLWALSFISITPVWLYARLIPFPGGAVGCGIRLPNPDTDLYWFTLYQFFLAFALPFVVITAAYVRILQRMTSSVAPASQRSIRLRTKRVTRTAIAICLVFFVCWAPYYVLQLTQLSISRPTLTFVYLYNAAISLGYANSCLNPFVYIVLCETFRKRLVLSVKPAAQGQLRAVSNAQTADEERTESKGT

In the case of `COc1cc(-n2nnc3cc(-c4ccc(Cl)cc4)sc3c2=O)ccc1N1CC[C@@H](O)C1` [Example 1, 6-(4-Chlorophenyl)-3-{4-[(3R)-3-hydroxypyrrolidin-1-yl]-3-methoxyphenyl}thieno[3,2-d][1,2,3]triazin4(3D)-one], the IC50 – broadly, the concentration at which inhibition is half-maximal – in test [1] is 11 nM; at hERG, above 5000 nM.

These data come from US20080221107A1, “Therapeutic Agents” (ASTRAZENECA AB, priority 2005, published 2008).
